{"source": "patent US9763445B2", "about": "“Safened herbicidal compositions comprising a pyridine carboxylic acid herbicide” (Dow AgroSciences, LLC, priority 2014, dated 2017)", "key": {"[1]": {"test_system": "giant foxtail (SETFA)", "assay": "Postemergence greenhouse trial, % visual injury on giant foxtail", "assay_type": "in vivo, Setaria faberi", "settings": "alone, 35 g/ha", "protocol": "(§1) Seeds of the desired test plant species were planted in Sun Gro MetroMix® 306 planting mixture, which typically has a pH of 6.0 to 6.8 and an organic matter content of about 30 percent, in plastic pots with a surface area of 103.2 square centimeters (cm^2). When required to ensure good germination and healthy plants, a fungicide treatment and/or other chemical or physical treatment was applied. The plants were grown for 7-36 days (d) in a greenhouse with an approximate 14-hour (h) photoperiod which was maintained at about 23° C. during the day and 22° C. during the night. Nutrients and water were added on a regular basis and supplemental lighting was provided with overhead metal halide 1000-Watt lamps as necessary. The plants were employed for testing when they reached the second or third true leaf stage.\n(§2) Weighed amounts of technical material were dissolved in a volume of 97:3 volume per volume (v/v) acetone/dimethyl sulfoxide (DMSO) to stock solutions. […] The concentrated stock solutions were diluted with an aqueous mixture of 1.5% v/v of Agri-dex crop oil concentrate to provide the appropriate application rates. Compound requirements are based upon a 12 milliliter (mL) application volume at a rate of 187 liters per hectare (L/ha). […]\n(§3) The treated plants and control plants were placed in a greenhouse as described above and watered by sub-irrigation to prevent wash-off of the test compounds. After 20-22 d, the condition of the test plants as compared with that of the control plants was determined visually and scored on a scale of 0 to 100 percent where 0 corresponds to no injury and 100 corresponds to complete kill. The condition of the test plants was compared with that of the control plants as determined visually and scored on a scale of 0 to 100 percent, where 0 corresponds to no injury and 100 corresponds to complete kill. […]\nThe safener cloquintocet-mexyl was combined with compound 1, compound 2, compound 4, compound 5, and compound 6, and applied to corn/maize (ZEAMX) and spring wheat (TRZAS) and the phytotoxicity of the herbicidal compositions was measured. […]"}, "[2]": {"test_system": "poinsettia (EPHHL)", "assay": "Postemergence greenhouse trial, % visual injury on poinsettia", "assay_type": "in vivo, Euphorbia heterophylla", "settings": "alone, 35 g/ha", "protocol": "as §1\nas §2, with “(L/ha). Stocks solutions of the safeners were prepared following the same procedure.” for “(L/ha).”\nas §3\n(§4) The safener cloquintocet-mexyl was combined with compound 1, compound 2, compound 4, compound 5, and compound 6, and applied to corn/maize (ZEAMX) and spring wheat (TRZAS) and the phytotoxicity of the herbicidal compositions was measured. In addition, the efficacy of the herbicidal composition on velvetleaf (ABUTH, Abutilon theophrasti), pigweed (AMARE, Amaranthus retroflexus), winter rape (BRSNW, Brassica napus), lambsquarters (CHEAL, Chenopodium album), thistle (CIRAR, Cirsium arvense), nutsedge (CYPES, Cyperus esculentus), poinsettia (EPHHL, Euphorbia heterophylla), wild buckwheat (POLCO, Polygonum convolvulus), giant foxtail (SETFA, Setaria faberi), and chickweed (STEME, Stellaria media) was evaluated. […]"}, "[3]": {"test_system": "spring wheat (TRZAS)", "assay": "Postemergence greenhouse trial, % visual injury on spring wheat", "assay_type": "in vivo, Triticum aestivum", "settings": "alone, 35 g/ha", "outline": "(§5)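 Postemergence greenhouse spray (187 L/ha, 1.5% v/v Agri-dex in water, acetone/DMSO stocks) on plants at second–third true leaf stage, ~23/22 °C, 14 h photoperiod; herbicides in g ae/ha, safener cloquintocet-mexyl in g ai/ha. Visual injury 0–100% versus solvent-blank controls after 20–22 d; Colby's equation gave expected mixture effects.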"}, "[4]": {"test_system": "velvetleaf (ABUTH)", "assay": "Postemergence greenhouse trial, % visual injury on velvetleaf", "assay_type": "in vivo, Abutilon theophrasti", "settings": "alone, 35 g/ha", "protocol": "as §1\n(§6) Weighed amounts of technical material were dissolved in a volume of 97:3 volume per volume (v/v) acetone/dimethyl sulfoxide (DMSO) to stock solutions. […] The concentrated stock solutions were diluted with an aqueous mixture of 1.5% v/v of Agri-dex crop oil concentrate to provide the appropriate application rates. Compound requirements are based upon a 12 milliliter (mL) application volume at a rate of 187 liters per hectare (L/ha). Stocks solutions of the safeners were prepared following the same procedure. Spray solutions of the safeners and experimental compound mixtures were prepared by adding the stock solutions to the appropriate amount of dilution solution to form a 12 mL spray solution in two-way combinations. Formulated compounds were applied to the plant material with an overhead Mandel track sprayer equipped with 8002E nozzles calibrated to deliver 187 L/ha over an application area of 0.503 square meters (m^2) at a spray height of 18 inches (43 centimeters (cm)) above average plant canopy. Control plants were sprayed in the same manner with the solvent blank. All herbicide application (component a) rates are in g ae/ha and all safener (component b) rates are in g ai/ha.\n(§7) The treated plants and control plants were placed in a greenhouse as described above and watered by sub-irrigation to prevent wash-off of the test compounds. After 20-22 d, the condition of the test plants as compared with that of the control plants was determined visually and scored on a scale of 0 to 100 percent where 0 corresponds to no injury and 100 corresponds to complete kill. The condition of the test plants was compared with that of the control plants as determined visually and scored on a scale of 0 to 100 percent, where 0 corresponds to no injury and 100 corresponds to complete kill. Colby's equation was used to determine the herbicidal effects expected from the mixtures.\n(§8) The safener cloquintocet-mexyl was combined with compound 1, compound 2, compound 4, compound 5, and compound 6, and applied to corn/maize (ZEAMX) and spring wheat (TRZAS) and the phytotoxicity of the herbicidal compositions was measured. In addition, the efficacy of the herbicidal composition on velvetleaf (ABUTH, Abutilon theophrasti), pigweed (AMARE, Amaranthus retroflexus), winter rape (BRSNW, Brassica napus), lambsquarters (CHEAL, Chenopodium album), thistle (CIRAR, Cirsium arvense), nutsedge (CYPES, Cyperus esculentus), poinsettia (EPHHL, Euphorbia heterophylla), wild buckwheat (POLCO, Polygonum convolvulus), giant foxtail (SETFA, Setaria faberi), and chickweed (STEME, Stellaria media) was evaluated.\n(§9) The safener cloquintocet-mexyl was combined with compound 1, compound 2, compound 3, compound 7, compound 8, compound 9, compound 10, compound 11, compound 12, compound 13, compound 14, compound 15, compound 16, compound 17, compound 18, compound 19, and compound 20, and applied to spring wheat (TRZAS), winter wheat (TRZAW), and spring barley (HORVS) and the phytotoxicity of the herbicidal compositions was measured. […]"}, "[5]": {"test_system": "thistle (CIRAR)", "assay": "Postemergence greenhouse trial, % visual injury on thistle", "assay_type": "in vivo, Cirsium arvense", "settings": "Cirsium arvense, post-emergence; alone, 35 g/ha; read-out: % visual injury, Ob", "protocol": "as §1, §6, §7, §4"}, "[6]": {"test_system": "chickweed (STEME)", "assay": "Postemergence greenhouse trial, % visual injury on chickweed", "assay_type": "in vivo, Stellaria media", "settings": "alone, 35 g/ha", "protocol": "as §1, §6, §7, §4"}, "[7]": {"test_system": "wild buckwheat (POLCO)", "assay": "Postemergence greenhouse trial, % visual injury on wild buckwheat", "assay_type": "in vivo, Polygonum convolvulus", "settings": "alone, 35 g/ha", "protocol": "as §1, §6, §7, §8, §9"}, "[8]": {"test_system": "corn/maize (ZEAMX)", "assay": "Postemergence greenhouse trial, % visual injury on corn/maize", "assay_type": "in vivo, Zea mays", "settings": "alone, 35 g/ha", "protocol": "as §1, §6, §7, §4"}, "[9]": {"test_system": "lambsquarters (CHEAL)", "assay": "Postemergence greenhouse trial, % visual injury on lambsquarters", "assay_type": "in vivo, Chenopodium album", "settings": "Chenopodium album, post-emergence; alone, 35 g/ha; read-out: % visual injury, Ob", "protocol": "as §1, §6, §7, §8, §9"}, "[10]": {"test_system": "pigweed (AMARE)", "assay": "Postemergence greenhouse trial, % visual injury on pigweed", "assay_type": "in vivo, Amaranthus retroflexus", "settings": "Amaranthus retroflexus, post-emergence; alone, 35 g/ha; read-out: % visual injury, Ob", "outline": "as §5"}, "[11]": {"test_system": "winter rape (BRSNW)", "assay": "Postemergence greenhouse trial, % visual injury on winter rape", "assay_type": "in vivo, Brassica napus", "settings": "Brassica napus, post-emergence; alone, 35 g/ha; read-out: % visual injury, Ob", "outline": "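Plants at second or third true leaf stage, greenhouse-grown (14 h photoperiod, ~23/22° C.), sprayed postemergence with compounds alone or with safener cloquintocet-mexyl in 1.5% v/v Agri-dex crop oil at 187 L/ha. Visual injury scored 0–100% versus solvent-blank controls after 20-22 d; expected mixture effects by Colby's equation.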"}}}
{"molecule": "COC(=O)c1nc(-c2ccc3ccn(C(=O)C(C)(C)C)c3c2F)c(F)c(N)c1Cl", "note": "[compound 5]", "values": [{"measurement": "% visual injury, Ob", "setting": "[1]", "value": 60, "unit": "%"}, {"measurement": "% visual injury, Ob", "setting": "[2]", "value": 100, "unit": "%"}, {"measurement": "% visual injury, Ob", "setting": "[3]", "value": 45, "unit": "%"}, {"measurement": "% visual injury, Ob", "setting": "[4]", "value": 80, "unit": "%"}, {"measurement": "pest or weed control at 35 g/ha", "setting": "[5]", "value": 80, "unit": "%"}, {"measurement": "% visual injury, Ob", "setting": "[6]", "value": 85, "unit": "%"}, {"measurement": "% visual injury, Ob", "setting": "[7]", "value": 100, "unit": "%"}, {"measurement": "% visual injury, Ob", "setting": "[8]", "value": 35, "unit": "%"}, {"measurement": "pest or weed control at 35 g/ha", "setting": "[9]", "value": 100, "unit": "%"}, {"measurement": "pest or weed control at 35 g/ha", "setting": "[10]", "value": 100, "unit": "%"}, {"measurement": "plant injury at 35 g/ha", "setting": "[11]", "value": 97, "unit": "%"}]}
